Results published in patent US20200362314A1, “METHODS TO PRODUCE ADULT-LIKE CARDIOMYOCYTES DERIVED FROM INDUCED PLURIPOTENT STEM CELLS FOR DRUG DISCOVERY” (THE REGENTS OF THE UNIVERSITY OF COLORADO, A BODY CORPORATE, priority 2019, published 2020).
Entries after “also recorded” stand apart in the source; their conditions may differ. Marks after values point to notes of the source that are not given here.

Tests used:
hiPSC-CMs [1] = test: Hypertrophic response (cell area) of hiPSC-CMs; type: cell-based, human; conditions: for increase in cell area: vs vehicle
Procedure: Panels A-B show an image and graph, respectively, depicting hiPSC-CMs cultured under indication conditions and treated with vehicle, 10 μM phenylephrine (PE) or 10 μM PE and 1 μM JQ-1 (a BET Bromodomain inhibitor) for 48 hours, then fixed and stained for α-actinin (green) and Hoescht 3342 (blue). Representative images are shown in panel A. Cell area of hiPSC-CMs were quantified in panel B. Cell areas measured on 616-789 cardiomyocytes pooled from four independent inductions. Panel C is a graph depicting qPCR for B-type natriuretic peptide, normalized to 18S rRNA and shown as fold change relative to GLUC, from cDNA prepared from four independent inductions. Panels D-F depict data showing characterization of cardiac hypertrophy in Danon hiPSC-CMs under various culture conditions, and their comparison to the hypertrophy observed in human patients. In Panel D, hypertrophy (as assessed by left ventricular posterior wall thickness, LVPW) in the hearts of human patients is shown. […] Cell areas measured on 356-1056 cardiomyocytes pooled from two independent inductions. *, **, **** p<0.05, 0.01, 0.0001, Kruskal-Wallis test followed by Dunn's multiple comparison test (B,D) or one way ANOVA followed by Tukey's multiple comparison test on log2 transformed data (C).
Cell imaging studies: Cells on small unpatterned or patterned surfaces in 24 well plates were used for immunofluorescent staining. Briefly, cells were washed with PBS, then fixed either with 4% paraformaldehyde (PFA) in PBS (10 minutes at room temperature) or a 1:1 mixture of methanol and acetone (5minutes at -20° C.). After fixation, cells were washed with PBS, then permeabilized with 0.2% Triton-X 100 in PBS (10 minutes at room temperature). Methanol/acetone fixation was used for images shown in FIG. 1 (staining for α-actinin, MYBPC3, c-TNI, and MLC-2V). PFA fixation was used for all other experiments. All measurements of cell area and hypertrophy were conducted on PFA fixed cells.
For cell area measurements, cells were PFA fixed and stained for α-actinin as described above, then counterstained with HCS CellMask™ Orange (Thermo Fisher Scientific, Waltham, Mass.), diluted 1:2, 500 in PBS, for 30 minutes at room temperature.
All imaging was conducted on an EVOS FL Cell Imaging System (Thermo Fisher Scientific, Waltham, MA). All image analysis including measurements of cell area, circularity, and sarcomere length were conducted using Image J.

[2] = test system: adult mouse ventricular cardiomyocytes (AMVCMs); test: Hypertrophic response (cell area) of adult mouse ventricular cardiomyocytes; type: cell-based
Procedure: (§1) Panels A-B show representative images of BNP staining and quantification of BNP and pro-NT-BNP-positive hiPSC-CMs cultured and treated as described in FIGS. 12A-B. Panels C-D show representative brightfield images and cell area of AMVCMs under indicated conditions. AMVCMs were isolated from 8-12 week old adult mice then treated with vehicle, 10 μM phenylephrine (PE) or 10 μM PE and 1 μM JQ-1 for 72 hours, then fixed. **** p<0.0001, Kruskal-Wallis test followed by Dunn's multiple comparison test. Cell areas measured on 664-706 cardiomyocytes pooled from four separate cardiomyocyte isolations.
Cardiomyocyte Isolation: 15 minutes prior to beginning isolation, mice were injected with 300 μL of heparin (10,000 units/mL). Mice were then anesthetized via inhalation of isofluorane, and when becoming unresponsive to toe pinch were killed via cervical dislocation. The chest was then opened, and the heart was removed rapidly and placed in ice-cold perfusion buffer (10 mM creatine monohydrate, 30 mM Taurine, 5.6 mM Dglucose, 4.6 mM NaHCO3, 10 mM BDM, 120 mM NaCl, 15 mM KCl, 0.6 mM Na2HPO4, 0.6 mM KH2PO4, 1.2 mM MgSO4, 10 mM Hepes, filtered at 0.40 μm, pH 7.4). The heart was washed briefly in perfusion buffer, and excess fat/thymus tissue trimmed off. […] Cells were then inspected and counted, and if <60% of myocytes were rod-shaped (viable) the cells were not used for experimentation. […]

adult cardiomyocytes = conditions: in vitro, typical response; cited from earlier work
hiPSC-CMs [3] = test: BNP / pro-NT-BNP immunofluorescent staining of hiPSC-CMs; type: cell-based, human; conditions: GLUC hiPSC-CMs; 10 μM PE, 48 hours
Procedure: as §1
For B-type natriuretic peptide (BNP) staining, an adaption of a previously published method was used: cells were PFA fixed, then blocked and permeabilized for 30 minutes with 5% milk/0.1% Triton X-100/PBS (blocking solution) for 30 minutes at room temperature. Cells were then incubated with pro-BNP antibody diluted in blocking solution overnight at 4° C. Cells were then washed four times in 0.05% Triton-X 100/PBS for 5 minutes, and incubated with secondary antibody diluted in blocking solution for hour at room temperature. Cells were then washed twice in 0.05% Triton-X 100/PBS for 5 minutes, counterstained with Hoescht 3342 as described above, and washed twice more.
All imaging was conducted on an EVOS FL Cell Imaging System (Thermo Fisher Scientific, Waltham, MA). […]

neonatal cardiomyocytes = conditions: in vitro; cited from earlier work
[4] = test system: myofibrils from MPAT hiPSC-CMs; test: Myofibril mechanics of MPAT hiPSC-CMs; type: cell-based, human
Text: FIG. 13 is graphs showing results that indicate that phenylephrine treatment induces changes in myofibril relaxation which are similar to those observed in human hypertrophic cardiomyopathy. […] Myofibrils were isolated from 4 donor and 4 HCM hearts, with at least 6 myofibrils isolated per heart. […] 44-45 myofibrils isolated per condition, pooled from 3 independent inductions. Complete tables of myofibril data from these experiments are available in Tables 4 and 5. *, **, **** p<0.05, 0.01, 0.0001, Student's t test on log2-transformed data.
To isolate myofibrils from adult mouse cardiomyocytes and stem cell derived cardiomyocytes, cells were lysed and myofibrils prepared using an adaption from a recently described method. In brief, cells were lysed in relaxing solution with protease inhibitors and 20% (w/vol) sucrose, using a scraper. The lysed cell solution was then transferred into a microfuge tube and incubated on ice for 10 minutes with periodic vortexing. The cell/myofibril solution was then centrifuged at 1,500 g for 5 minutes at 4° C., and the cell/myofibril pellet resuspended in fresh relaxing solution with protease inhibitors. This process was repeated twice to remove any residual sucrose, and the cell/myofibril solution was then homogenized.
Myofibril mechanics were quantified using the fast solution switching technique on a custom-built experimental rig. Myofibril suspensions were plated onto a temperature controlled glass coverslip (15° C.) containing relaxing solution. Single myofibrils and myofibril bundles were then picked up from the surface of this coverslip and mounted between two glass micro-tools. One tool, the stretcher, was linked to a motor which could produce rapid changes in length (Mad City Labs, Madison, Wis.), while the second tool was a calibrated cantilevered force probe (6-8 μm/μN; frequency response 2-5 KHz), which was colored with black ink to increase probe sensitivity. After mounting myofibrils between microtools, they were stretched to 5-10% above slack myofibril length. Average sarcomere lengths and myofibril diameters were measured using ImageJ software. Mounted myofibrils were then activated and relaxed by rapidly changing the position of a double-barreled pipette simultaneously releasing activating solution (pCa 4.5) and relaxing solution (pCa 9.0) from each barrel. By rapidly changing the position of the pipette, the mounted myofibril could be induced to activate and relax. From the activation/relaxation trace produced, the following parameters were acquired: resting tension, the passive tension produced in relaxing conditions, induced by a push on the stretcher; maximum tension (mN/mm2), the greatest level of active tension generated by the myofibril at full calcium activation (pCa 4.5); activation kinetics (kAct), the rate constant of tension development following myofibril activation; reactivation kinetics (kTr), the rate constant of tension redevelopment following myofibril release/stretch to break cross bridges; slow phase relaxation kinetics (kREL,SLOVV), the kinetics of the initial slow/linear phase of myofibril relaxation, slow phase relaxation time (TLIN), the duration of the slow phase of relaxation, from the switching of the pipette to relaxing solution to the beginning of the fast phase of relaxation; fast phase relaxation kinetics (kREL,FAST), the rate constant of the fast (exponential) phase of relaxation.

myofibrils from AMVCMs = test: Myofibril mechanics of AMVCMs; type: cell-based, mouse
Procedure: Myofibril mechanics data from AMVCMs isolated from 8-12 week old adult mice and treated with vehicle or 10 μM PE for 72 hours before myofibril isolation. Note that rodent myofibrils display profoundly faster kinetics of both activation and relaxation at baseline compared to myofibrils from human hiPSC-CMs and cardiac tissue. *, p<0.05, Student t test. 21-26 myofibrils were isolated from three separate cardiomyocyte isolations. A complete table of myofibril mechanics data on AMVCMs can be seen in Table 6.
Cardiomyocyte Isolation: 15 minutes prior to beginning isolation, mice were injected with 300 μL of heparin (10,000 units/mL). Mice were then anesthetized via inhalation of isofluorane, and when becoming unresponsive to toe pinch were killed via cervical dislocation. The chest was then opened, and the heart was removed rapidly and placed in ice-cold perfusion buffer (10 mM creatine monohydrate, 30 mM Taurine, 5.6 mM Dglucose, 4.6 mM NaHCO3, 10 mM BDM, 120 mM NaCl, 15 mM KCl, 0.6 mM Na2HPO4, 0.6 mM KH2PO4, 1.2 mM MgSO4, 10 mM Hepes, filtered at 0.40 μm, pH 7.4). The heart was washed briefly in perfusion buffer, and excess fat/thymus tissue trimmed off. The aorta was then cannulated using a blunted 20-gauge needle, and was mounted on a Langendorff apparatus (Radnoti, Covina, Calif.) with a heating pump kept at 37° C. for the duration of the isolation (VWR International, Radnor, Pa.). Hearts were mounted on the Langendorff apparatus within 3-7 minutes of removing from the body. The heart was then perfused in retrograde fashion at a rate of 4 mL/minute, driven by a Rainin™ Rabbit peristaltic pump (Mettler Toledo, Columbus, Ohio). To remove blood from the heart's vessels, it was first perfused for 3 min using perfusion buffer. Buffer was then switched to calcium-free digestion buffer (perfusion buffer with 1.3 mg/mL collagenase II) for 3 min and was then switched to digestion buffer supplemented with […] CaCl2. Hearts were perfused with high-calcium digestion buffer for another 6 to 10 minutes, once the heart became extremely soft and compliant. The heart was then removed from the cannulating needle and placed in a 60 mm culture dish with 2.5 mL high-calcium digestion buffer. The atria and right ventricle were then removed, and the left ventricle dissociated using a pipette and forceps. Once the heart was completely dissociated, digestion was halted by the addition of 7.5 mL stopping buffer (perfusion buffer with 10% (vol/vol) FBS and […] CaCl2). The cardiomyocyte suspension was then filtered through 200-μm mesh into a 50-mL conical tube, and the culture dish washed with an additional 10 mL stopping buffer, which was then filtered into the conical tube as well. This cell suspension was then allowed to incubate for 10 minutes at room temperature, allowing a cardiomyocyterich pellet to form. The fibroblast-rich supernatant was discarded, while the pellet with was resuspended in 10 mL of stopping buffer. 100 mM CaCl2 solution was then added to this buffer in a stepwise manner, with 2-min intervals between each addition: calcium concentration was first increased to 112.5 μmol/L, then to 312.5 μmol/L, then 712.5 μmol/L, and finally to 1.4 mmol/L. The cell suspension was then centrifuged at 1,000×g for 3 min at room temperature. Cells were then inspected and counted, and if <60% of myocytes were rod-shaped (viable) the cells were not used for experimentation. Cardiomyocytes were then resuspended in plating medium [perfusion buffer with 2.5% (vol/vol) FBS, 1% (vol/vol) penicillin/streptomycin (P/S), and 1.4 mM CaCl2, and plated on either 6 well plates (for myofibril mechanics) or 24 well plates (for hypertrophy imaging) coated with 9-10 μg/mL Laminin. […]

[5] = test system: adult rat cardiac (ARVM) myofibrils; conditions: 48 hours of PE treatment; cited from earlier work
[6] = MPAT hiPSC-CMs, 10 μM PE, 48 hours, mean ± SEM

Cc1sc2c(c1C)C(c1ccc(Cl)cc1)=N[C@@H](CC(=O)OC(C)(C)C)c1nnc(C)n1-2 [JQ-1]
effect on cell area (hiPSC-CMs [1]; GLUC hiPSC-CMs, 10 μM PE and 1 μM JQ-1, 48 hours): profoundly reduced cell area; also recorded: reduced cell area significantly beyond baseline
reduction of cell area relative to PE-treated cells (hiPSC-CMs [1]; MM hiPSC-CMs, 10 μM PE and 1 μM JQ-1, 48 hours): 17%
reduction of cell area relative to PE-treated cells (hiPSC-CMs [1]; MPAT hiPSC-CMs, 10 μM PE and 1 μM JQ-1, 48 hours): 31%
decrease in cell area ([2]; 10 μM PE and 1 μM JQ-1, 72 hours): 11%

CNC[C@H](O)c1cccc(O)c1 [PE, phenylephrine]
increase in cell area (adult cardiomyocytes): 10-30%
increase in cell area (hiPSC-CMs [1]; MM hiPSC-CMs, 10 μM PE, 48 hours): 29%
increase in cell area (hiPSC-CMs [1]; MPAT hiPSC-CMs, 10 μM PE, 48 hours): 19%
effect on cell area (hiPSC-CMs [1]; hiPSC-CMs cultured in glucose-containing medium (GLUC), 10 μM PE, 48 hours): no effect; also recorded: no hypertrophic response
cells staining positive for BNP expression (hiPSC-CMs [3]): not increased
increase in cell area (neonatal cardiomyocytes): 50-100%
Max. tens. [4, 6]: 44.04 ± 5.05 mN/mm^2
Rest. tens. [4, 6]: 6.15 ± 0.90 mN/mm^2
kACT [4, 6]: 1.03 ± 0.08 s⁻¹
kREL, FAST [4, 6]: 8.64 ± 0.77* s^−1
kREL, SLOW [4, 6]: 0.58 ± 0.12 s⁻¹
kTR [4, 6]: 0.80 ± 0.06 s⁻¹
tLIN [4, 6]: 113.6 ± 6.2**** mSec
shortening of linear phase of relaxation ([4]; hiPSC-CMs, PE vs vehicle (Table 5)): more than 80 msec
increase in cell area ([2]; 10 μM PE, 72 hours): 16%
Max. tens. (myofibrils from AMVCMs; 10 μM PE, 72 hours, mean ± SEM): 68.55 ± 6.39 mN/mm^2
Rest. tens. (myofibrils from AMVCMs; 10 μM PE, 72 hours, mean ± SEM): 6.94 ± 1.07 mN/mm^2
kACT (myofibrils from AMVCMs; 10 μM PE, 72 hours, mean ± SEM): 4.45 ± 0.33 s⁻¹
kREL, FAST (myofibrils from AMVCMs; 10 μM PE, 72 hours, mean ± SEM): 36.61 ± 4.59 s⁻¹
kREL, SLOW (myofibrils from AMVCMs; 10 μM PE, 72 hours, mean ± SEM): 1.83 ± 0.32 s⁻¹
kTR (myofibrils from AMVCMs; 10 μM PE, 72 hours, mean ± SEM): 3.12 ± 0.30 s⁻¹
tLIN (myofibrils from AMVCMs; 10 μM PE, 72 hours, mean ± SEM): 45.83 ± 2.58* mSec
shortening of linear phase of relaxation (myofibrils from AMVCMs; PE vs PBS (Table 6)): ~10 ms
effect on myofibril calcium sensitivity [5]: increased myofibril calcium sensitivity
effect on the kinetics of myofibril activation or relaxation [5]: no effect
